Laboratory results: publication PMC12059162 (Scientific Reports, 2025)
Marks after values point to notes of the source that are not given here.

Key:
MIA PaCa-2 cells [1] = test: Cell cycle analysis (PI, flow cytometry); details: MIA PaCa-2, 0.5 µM; for Effect on cell cycle: 48 h
pro-caspase-3 = test: Human Apoptosis Array in PANC-1 cells; details: PANC-1, 0.5 µM, 72 h
phospho-p53 (S15) = test: Human Apoptosis Array in PANC-1 cells; details: PANC-1, 0.5 µM, 72 h
TRAIL = test: qPCR apoptotic gene expression in PANC-1 cells; details: PANC-1, 25 µM
A2058 cells = test: alamarBlue cell viability; details: Homo sapiens, A2058, 72 h; for IC50: read-out: IC50 values (μM) 72 hours; for viability at 0.5 µM / viability at 10 µM / viability at 25 µM: read-out: Viability (%) after 72-h treatment
PANC-1 cells [2] = test: Annexin-V/7AAD early and late apoptosis flow cytometry; type: cell-based, human; details: PANC-1, 0.5 µM, 72 h; for Ratio of late apoptotic cells: control 0.9%; for Ratio of AnnexinV+ and 7AAD- (early apoptotic) cells: control 21.1%
Protocol: For apoptosis measurements, Annexin-V positive/7AAD (7-Aminoactinomycin D) negative, early apoptotic and Annexin-V/ 7AAD double positive, late apoptotic cells were differentiated using a BD FACSCalibur (BD FACSCalibur, Becton-Dickinson, San Jose, CA, USA) flow cytometer[49],[50]. […] After 24, 48, and 72 h treatment, cells were harvested with 300 µL TrypLE (Sigma Ltd. St. Louis, MO, USA). Fresh cell culture medium was then added to stop the effect of TrypLE and the harvested cells were centrifuged for 5 min (300 g). Then, the supernatant was removed, and cells were resuspended in 300 µL of Annexin binding buffer (Sony Biotechnology, Weybridge, UK). For labelling, 3–3 µL of Annexin-V-FITC (Sony Biotechnology, Weybridge, UK) and 7AAD (Sony Biotechnology, Weybridge, UK) were added, followed by 10 min incubation at room temperature in the dark. For flow cytometric analysis (BD FACSCalibur, Becton–Dickinson, San Jose, CA, USA), a minimum of 10^4 cells/sample was measured. Annexin-V was detected using the FL-1 channel (530/30), and 7AAD was detected using the FL-3 channel (670 LP). In each treatment group, 3 parallel samples were analysed. The results were evaluated using Flowing Software 2.5.1 (Turku Centre of Biotechnology, Turku, Finland).

HSP60 = test: Human Apoptosis Array in PANC-1 cells; details: PANC-1, 0.5 µM, 72 h
MIA PaCa-2 cells [3] = test: alamarBlue cell viability; details: Homo sapiens, MIA PaCa-2, 72 h; for viability at 0.5 µM / viability at 10 µM / viability at 25 µM: read-out: Viability (%) after 72-h treatment
phospho-p53 (S392) = test: Human Apoptosis Array in PANC-1 cells; details: PANC-1, 0.5 µM, 72 h
PANC-1 cells [4] = test: xCELLigence SP impedimetric cell viability; details: for IC50 / viability at 0.5 µM / viability at 10 µM / viability at 25 µM: Homo sapiens, PANC-1, 72 h; for IC50: read-out: IC50 values (μM) 72 hours; for viability at 0.5 µM: read-out: Viability (%) after 72-h treatment, PANC-1, 0.5 μM, 72 h, mean ± SD (n = 3); for viability at 10 µM: read-out: Viability (%) after 72-h treatment, PANC-1, 10 μM, 72 h, mean ± SD (n = 3); for viability at 25 µM: read-out: Viability (%) after 72-h treatment, PANC-1, 25 μM, 72 h, mean ± SD (n = 3)
EBC-1 cells = test: alamarBlue cell viability; details: for viability at 0.5 µM: read-out: Viability (%) after 72-h treatment, EBC-1, 0.5 μM, 72 h, mean ± SD (n = 3); for viability at 10 µM: read-out: Viability (%) after 72-h treatment, EBC-1, 10 μM, 72 h, mean ± SD (n = 3); for viability at 25 µM: read-out: Viability (%) after 72-h treatment, EBC-1, 25 μM, 72 h, mean ± SD (n = 3)
DR5 = test: qPCR apoptotic gene expression in PANC-1 cells; details: PANC-1, 25 µM
[5] = alamarBlue cell viability, healthy cells; details: human, NHDF cells
p53 = test: qPCR apoptotic gene expression in PANC-1 cells; details: PANC-1, 25 µM, normalised to DMSO control
PANC-1 cells [6] = test: Cell cycle analysis (PI, flow cytometry); details: for Effect on cell cycle: PANC-1, 0.5 µM, 48 h; for Increase in cell number in the G2/M phase: PANC-1, 10 and 25 µM, 72 h
DR4 = test: Human Apoptosis Array in PANC-1 cells; details: PANC-1, 0.5 µM, 72 h
COLO-205 cells = test: alamarBlue cell viability; details: Homo sapiens, COLO 205, 72 h; for viability at 0.5 µM / viability at 10 µM / viability at 25 µM: read-out: Viability (%) after 72-h treatment
phospho-p53 (S46) = test: Human Apoptosis Array in PANC-1 cells; details: PANC-1, 0.5 µM, 72 h
[7] = alamarBlue cell viability, cardiotoxicity; details: mouse, HL-1 cardiomyocytes
PANC-1 cells [8] = test: Holographic microscopy morphometry (HoloMonitor M4); type: cell-based, human; details: 72 h
Protocol: To follow the morphometric changes, a holographic transmission microscope (HoloMonitor M4; Phase Holographic Imaging AB, Lund, Sweden) was used, which uses a laser to produce 3D images of the cells[51],[52]. This […] imaging technique allows us to monitor cell morphological changes in real-time. First, the cells were seeded at a concentration of 3.5 × 10^5 cells/flask/4000 µL cell culture medium. […] At least 5 images were taken from each culture dish, taking care to assess different fields of view. These images were evaluated using the microscope software (Hstudio M4). We assessed the average area and the average optical thickness of the cells.

cIAP-1 = test: Human Apoptosis Array in PANC-1 cells; details: PANC-1, 0.5 µM, 72 h
caspase-3/7 = test: CellEvent Caspase-3/7 activity imaging in PANC-1 cells; details: PANC-1, 0.5 µM, 72 h, normalised to DMSO control (n = 1)
survivin = test: Human Apoptosis Array in PANC-1 cells; details: PANC-1, 0.5 µM, 72 h
[9] = read-out: IC50 values (μM) 72 hours

## O=C1C2=C(CCN(Cc3ccccc3)C2)N2CCN=C2N1Cc1ccc(F)cc1 [TBP-134]
MIA PaCa-2 cells [1]
  Effect on cell cycle: strong G2/M phase arrest
MIA PaCa-2 cells [1]; 72 h, control 5.6%
  subG1 phase (percentage of cells): 20.8%
pro-caspase-3
  pro-caspase-3 protein level: decrease
phospho-p53 (S15)
  phospho-p53 (S15) protein level: decrease
TRAIL; any of the time points (3-48 h)
  TRAIL induction (mRNA): not detected
A2058 cells
  IC50: 0.34 µM
  viability at 0.5 µM: 51.4 ± 2.4%
  viability at 10 µM: 47.7 ± 3.5%
  viability at 25 µM: 44.7 ± 2.8%
PANC-1 cells [2]
  Early apoptotic cells, fold increase: 2.1 fold
  Late apoptotic cells, fold increase: 4.2 fold
  Ratio of late apoptotic cells: 3.8%
  Ratio of AnnexinV+ and 7AAD- (early apoptotic) cells: 43.8%
HSP60
  HSP60 protein level: significant increase
MIA PaCa-2 cells [3]; [9]
  IC50: 0.67 µM
MIA PaCa-2 cells [3]
  viability at 0.5 µM: 48.9 ± 2.9%
  viability at 10 µM: 65 ± 4.9%
  viability at 25 µM: 59 ± 5.5%
phospho-p53 (S392)
  phospho-p53 (S392) protein level: decrease
PANC-1 cells [4]
  IC50: 0.35 µM
  viability at 0.5 µM: 13.4%
  viability at 10 µM: 7.4 ± 0.3%
  viability at 25 µM: 6.1 ± 0.9%
PANC-1 cells [4]; PANC-1, 0.5 μM, 72 h, mean ± SD (n = 3), 0.5 µM
  Viability (%) after 72-h treatment: 13.2 ± 1.4^z %
EBC-1 cells; EBC-1, 0.5 μM, 72 h, mean ± SD (n = 3), 0.5 µM
  Viability (%) after 72-h treatment: 52.3 ± 1.5^z %
EBC-1 cells; Homo sapiens, EBC-1, 72 h
  viability at 0.5 µM: 52.2%
  viability at 10 µM: 51.7 ± 0.7%
  viability at 25 µM: 50.5 ± 2%
DR5; 12 h, normalised to DMSO control
  DR5 mRNA expression: 2.3 fold
[5]
  viability at 72 h, 0.5 µM: 61.5 ± 0.5%
  viability at 72 h, 10 µM: 46.2 ± 3.4%
  viability at 72 h, 25 µM: 48.3 ± 1.2%
p53; 48 h
  p53 mRNA expression: 3.7 fold
PANC-1 cells [6]
  Effect on cell cycle: strong G2/M phase arrest
  Increase in cell number in the G2/M phase: 2.2 fold
DR4
  DR4 protein level: significant increase
COLO-205 cells; [9]
  IC50: 0.25 µM
COLO-205 cells
  viability at 0.5 µM: 45.5 ± 1.3%
  viability at 10 µM: 48.8 ± 1.6%
  viability at 25 µM: 54.3 ± 0.6%
phospho-p53 (S46)
  phospho-p53 (S46) protein level: decrease
[7]
  viability at 72 h, 0.5 µM: 89.9 ± 5.2%
  viability at 72 h, 10 µM: 88.4 ± 5%
  viability at 72 h, 25 µM: 82 ± 2.3%
PANC-1 cells [8]; PANC-1, 25 µM
  Average cell area: 376 µm^2
  Average cell area, fold decrease vs DMSO: 1.7 fold
cIAP-1
  cIAP-1 protein level: undetectable

## O=C1C2=C(CCN(Cc3ccccc3)C2)N2CCN=C2N1Cc1cccc(F)c1 [TBP-135]
MIA PaCa-2 cells [1]
  Effect on cell cycle: did not affect
pro-caspase-3
  pro-caspase-3 protein level: significantly increased
phospho-p53 (S15)
  phospho-p53 (S15) protein level: significantly increased
TRAIL; 3 h, normalised to DMSO control
  TRAIL mRNA expression: 2.4 fold
A2058 cells
  IC50: 1.75 µM
  viability at 0.5 µM: 74.9 ± 1.1%
  viability at 10 µM: 47 ± 4.7%
  viability at 25 µM: 46.8 ± 2.9%
PANC-1 cells [2]
  Early apoptotic cells, fold increase: 2.5 fold
  Late apoptotic cells, fold increase: 3.5 fold
  Ratio of late apoptotic cells: 3.2%
  Ratio of AnnexinV+ and 7AAD- (early apoptotic) cells: 53.5%
HSP60
  HSP60 protein level: significantly increased
caspase-3/7
  Number of caspase-3/7 active cells, increase: 7.8 fold
MIA PaCa-2 cells [3]
  viability at 0.5 µM: 63.5 ± 2.6%
  viability at 10 µM: 62.7 ± 7.8%
  viability at 25 µM: 65.5 ± 7.9%
PANC-1 cells [4]
  IC50: 1.8 µM
  viability at 0.5 µM: 106 ± 2.4%
  viability at 10 µM: 8.8 ± 0.1%
  viability at 25 µM: 9.2 ± 4.6%
EBC-1 cells; Homo sapiens, EBC-1, 72 h, read-out: IC50 values (μM) 72 hours
  IC50: 2.5 µM
EBC-1 cells; Homo sapiens, EBC-1, 72 h
  viability at 0.5 µM: 66.6 ± 4.1%
  viability at 10 µM: 71.8 ± 31.1%
  viability at 25 µM: 48 ± 4%
DR5; 3 h
  DR5 mRNA expression: significantly upregulated
DR5; 24 h, normalised to DMSO control
  DR5 mRNA expression: 5.9 fold
[5]
  viability at 72 h, 0.37 µM: 111 ± 2.9%
  viability at 72 h, 8.6 µM: 65.9 ± 1.8%
  viability at 72 h, 25 µM: 71.4 ± 12.3%
p53; 24 h
  p53 mRNA expression: 2.9 fold
survivin
  survivin protein level: did not exert detectable change
PANC-1 cells [6]
  Effect on cell cycle: G1 phase block
  Increase in cell number in the G2/M phase: 2.2 fold
DR4
  DR4 protein level: significantly increased
COLO-205 cells
  viability at 0.5 µM: 74.7 ± 0.6%
  viability at 10 µM: 52.6 ± 4.1%
  viability at 25 µM: 54.2 ± 3.2%
phospho-p53 (S46)
  phospho-p53 (S46) protein level: significantly increased
[7]
  viability at 72 h, 0.5 µM: 98.8 ± 1.5%
  viability at 72 h, 10 µM: 86.8 ± 3.2%
  viability at 72 h, 25 µM: 88.3 ± 2.8%
PANC-1 cells [8]; PANC-1, 0.5 µM
  Average cell area, fold decrease vs DMSO: 1.9 fold
  Average optical thickness, fold increase vs DMSO: 4.1 fold
PANC-1 cells [8]; PANC-1, 0.5 µM, DMSO 1.45 μm
  Average optical thickness: 5.9 μm
PANC-1 cells [8]; PANC-1, 0.5 µM, DMSO 630 µm^2
  Average cell area: 338.5 µm^2
cIAP-1
  cIAP-1 protein level: significantly increased
